Test results: patent US20070156046A1, “Method of enriching hyperpolarized atom nuclei and an apparatus for implementing the method” (priority 2004, published 2007)

Key:
[1] = ^129Xe densities in the solvent in the two-stage enrichment apparatus; type: physicochemical; details: solvent toluol/ethanol
Method: A gas mixture 1 with hyperpolarized atomic nuclei flows from a polarizer (not shown) into a first chamber 2 containing a cooled solvent. Chamber 2 has means for cooling the solvent. The solvent containing the gas mixture is thereby cooled to-a temperature T1, of, e.g. 180° K.
The gas components are enriched in chamber 2 according to their solubility in the solvent, and thus separated from one another. The unnecessary components of the mixture are released through valve 3. The solvent enriched with the hyperpolarized atomic nuclei is guided through a connection line out of chamber 2 into a further chamber 5. Chamber 5 comprises means for degassing, such as an apparatus for producing ultrasound and/or heating.
Chamber 5 thus represents a degassing chamber 5 for the hyperpolarized atomic nuclei from the solvent. In chamber 5, a gas pressure of the originally dissolved gas arises due to the degassing of the hyperpolarized atomic nuclei via the solvent. The gas pressure is determined by the partial pressure of the hyperpolarized atomic nuclei (gas component) in solvent chamber 2, and the ratio of the solubilities of this gas component in the solvent at temperatures T1 in chamber 2 and T2 in chamber 5.
Following degassing in chamber 5, the solution and degassing process may be repeated, as represented in FIG. 2 by continuous lines. For this, starting from chamber 5 at the end of the first enrichment stage, the gas with the hyperpolarized atomic nuclei is guided into chamber 6, where it is cooled to the temperature T1. Following enrichment in the solvent, the gas is conducted into chamber 8 with a temperature of T2 for degassing. Chamber 8, again, has a sufficient volume.
The following ^129Xe densities in the solvent (toluol/ethanol) may be set at different temperatures: […]

[2] = solubility (Ostwald coefficient) of ^129Xe in toluol and ethanol depending on the temperature of the solvent; type: physicochemical; details: for increase of the density compared to the gas phase: 180° K; for density of ^129Xe compared with the gas phase: about 240° K
Method: Solubility is defined as the density of the hyperpolarized gas in the solvent relative to the density of the hyperpolarized gas in the gas chamber situated above a given temperature and pressure. The solubility is also referred to as the Ostwald coefficient.
An even higher solubility of ^129Xe in the solvent is obtained by cooling to temperatures of 180° K, thereby obtaining a 100-fold increase of the density in both toluol and ethanol compared to the gas phase. Further cooling by just a few degrees Kelvin already results in an increase of the Ostwald coefficient to a value of 200 (FIG. 2).

**Q.** For `[Xe]` [^129Xe, xenon], which “pXe, Sol, Stage 1 (Chamber 2)” value ([1]; T = 180°K) is on record?
**A.** Its value is “pXe, Sol −7.0 bar”.

**Q.** And the “pXe, Sol, Stage 2 (Chamber 6)” value ([1]; T = 180°K)?
**A.** The value was “˜20 bar”.

**Q.** What about the “pXe, Sol, Stage 1 (Chamber 2)” value ([1]; T = 200°K) of the same compound?
**A.** The value was “pXe, Sol −2.1 bar”.

**Q.** What about the “pXe, Sol, Stage 2 (Chamber 6)” value ([1]; T = 200°K) of the same compound?
**A.** The value was “˜10 bar”.

**Q.** And the “pXe, Sol, Stage 1 (Chamber 2)” value ([1]; T = 240°K)?
**A.** Its value is “pXe, Sol −0.7 bar”.

**Q.** And the “pXe, Sol, Stage 2 (Chamber 6)” value ([1]; T = 240°K)?
**A.** The value was “˜3.5 bar”.

**Q.** What about the “increase of the density compared to the gas phase” value ([2]; in ethanol) of the same compound?
**A.** Its value is 100 fold.

**Q.** What about the “density of ^129Xe compared with the gas phase” value ([2]; in ethanol) of the same compound?
**A.** The value was “ten times higher”.

**Q.** What about the “increase of the density compared to the gas phase” value ([2]; in toluol) of the same compound?
**A.** Its value is 100 fold.

**Q.** And the “density of ^129Xe compared with the gas phase” value ([2]; in toluol)?
**A.** The value was “ten times higher”.

**Q.** What about the Ostwald coefficient ([2]; solvent ethanol, standard conditions (293° K, 1 bar)) of the same compound?
**A.** The Ostwald coefficient was “about 2.5”.

**Q.** What about the Ostwald coefficient ([2]; solvent toluol, standard conditions (293° K, 1 bar)) of the same compound?
**A.** The Ostwald coefficient was “about 5”.

**Q.** And the “solubility or Ostwald coefficient compared to at room temperature” value ([2]; temperature of 273° K, toluol and ethanol (FIG. 1))?
**A.** Its value is “clear increase”.

**Q.** And the Ostwald coefficient ([2]; toluol and ethanol, further cooling by a few degrees Kelvin below 180° K)?
**A.** Its Ostwald coefficient is 200.
